pEC50, pIC50: −log10 of the molar value. Where two headings read alike, the source gives them in different places.
What was measured:
[1] = tested on: HCV genotype 1b replicon; experiment: HCV replicon assay, genotype 1b replicon EC50; format: cell-based, Hepatitis C virus; details: Hepatitis C virus, HCV replicon, genotype 1b, read-out: EC50 [gt-1b]
Procedure, shortened: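 Compound dilution series incubated 24-48 h, G418 absent, with HCV genotype 1b replicon cell lines kept under G418 selection beforehand. Luciferase signal or replicon RNA, by ^32P hybridization/protection or TaqMan normalized to cyclophilin A, was measured after washing and lysis. Four-parameter fitting against DMSO control gave EC50.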

[2] = target: HCV NS3/4A protease genotype 1b (Hepatitis C virus genotype 1b, UniProt P26663); experiment: HCV NS3/4A protease time-resolved fluorescence (TRF) assay, Ki against genotype 1b; format: biochemical; details: IC50 [gt-1b], NS3/4A protease TRF assay, genotype 1b enzyme 0.2 nM
Procedure, shortened: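 Ki values come from IC50 fits corrected for substrate concentration and KM. The time-resolved fluorescence protease reaction used 25 nM peptide substrate, 2.5 h, room temperature, pH 7.5 HEPES buffer, after 30 min enzyme–inhibitor preincubation.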

Chain of HCV NS3/4A protease genotype 1b (P26663 1027-1657): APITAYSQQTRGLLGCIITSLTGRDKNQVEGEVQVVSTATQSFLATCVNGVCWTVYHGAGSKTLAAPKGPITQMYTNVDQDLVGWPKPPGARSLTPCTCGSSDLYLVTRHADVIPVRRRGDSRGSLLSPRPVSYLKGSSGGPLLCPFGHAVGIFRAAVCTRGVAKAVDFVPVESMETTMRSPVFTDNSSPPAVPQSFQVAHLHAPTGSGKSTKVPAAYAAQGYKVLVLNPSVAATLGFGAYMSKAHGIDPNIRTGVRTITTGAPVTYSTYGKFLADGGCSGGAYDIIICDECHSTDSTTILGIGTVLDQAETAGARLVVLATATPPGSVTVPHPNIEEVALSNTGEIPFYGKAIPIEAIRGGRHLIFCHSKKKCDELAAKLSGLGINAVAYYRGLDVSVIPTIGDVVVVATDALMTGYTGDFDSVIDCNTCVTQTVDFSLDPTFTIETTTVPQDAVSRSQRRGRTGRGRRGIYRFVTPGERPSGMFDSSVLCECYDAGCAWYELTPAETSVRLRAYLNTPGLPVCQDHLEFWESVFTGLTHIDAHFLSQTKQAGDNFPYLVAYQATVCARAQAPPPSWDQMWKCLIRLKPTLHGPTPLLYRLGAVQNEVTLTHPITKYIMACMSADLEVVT
Chain of HCV NS3/4A protease genotype 1b (P26663 1658-1711): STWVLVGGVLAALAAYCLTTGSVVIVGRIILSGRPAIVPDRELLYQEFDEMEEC

Structure (SMILES): CC(C)COC(=O)N[C@H]1CCCCC/C=C\[C@@H]2C[C@@]2(C(=O)NS(=O)(=O)C2(C)CC2)NC(=O)[C@@H]2C[C@]3(CCc4c(c(C(F)(F)F)nc5ccc(Cl)cc45)O3)CN2C1=O [Example 383, 2-methylpropyl [(2R,6S,12Z,13aS,14aR,16aS)-9′-chloro-14a-{[(1-methylcyclopropyl)sulfonyl]carbamoyl}-5,16-dioxo-5′-(trifluoromethyl)-1,1′,2′,5,6,7,8,9,10,11,13a,14,14a,15,16,16a-hexadecahydrospiro[cyclopropa[e]pyrrolo[1,2-a][1,4]diazacyclopentadecine-2,3′-pyrano[2,3-c]quinolin]-6-yl]carbamate]
- pEC50 [1]: 7.42
- pIC50 [2]: 10.62

Structure (SMILES): CC1(S(=O)(=O)NC(=O)[C@@]23C[C@H]2/C=C\CCCCC[C@H](NC(=O)OC2CCCC2)C(=O)N2C[C@@]4(CCc5c(c(C(F)(F)F)nc6ccc(Cl)cc56)O4)C[C@H]2C(=O)N3)CC1 [Example 384, cyclopentyl [(2R,6S,12Z,13aS,14aR,16aS)-9′-chloro-14a-{[(1-methylcyclopropyl)sulfonyl]carbamoyl}-5,16-dioxo-5′-(trifluoromethyl)-1,1′,2′,5,6,7,8,9,10,11,13a,14,14a,15,16,16a-hexadecahydrospiro[cyclopropa[e]pyrrolo[1,2-a][1,4]diazacyclopentadecine-2,3′-pyrano[2,3-c]quinolin]-6-yl]carbamate]
- pEC50 [1]: 7.70
- pIC50 [2]: 10.64

Structure (SMILES): CC(C)OC(=O)N[C@H]1CCCCC/C=C\[C@@H]2C[C@@]2(C(=O)NS(=O)(=O)C2(C)CC2)NC(=O)[C@@H]2C[C@]3(CCc4c(c(C(F)(F)F)nc5ccc(Cl)cc45)O3)CN2C1=O [Example 385, propan-2-yl [(2R,6S,12Z,13aS,14aR,16aS)-9′-chloro-14a-{[(1-methylcyclopropyl)sulfonyl]carbamoyl}-5,16-dioxo-5′-(trifluoromethyl)-1,1′,2′,5,6,7,8,9,10,11,13a,14,14a,15,16,16a-hexadecahydrospiro[cyclopropa[e]pyrrolo[1,2-a][1,4]diazacyclopentadecine-2,3′-pyrano[2,3-c]quinolin]-6-yl]carbamate]
- pEC50 [1]: 8.17
- pIC50 [2]: 10.77

Structure (SMILES): CC(C)(C)COC(=O)N[C@H]1CCCCC/C=C\[C@@H]2C[C@@]2(C(=O)NS(=O)(=O)C2(C)CC2)NC(=O)[C@@H]2C[C@]3(CCc4c(c(C(F)(F)F)nc5ccc(Cl)cc45)O3)CN2C1=O [Example 386, 2,2-dimethylpropyl [(2R,6S,12Z,13aS,14aR,16aS)-9′-chloro-14a-{[(1-methylcyclopropyl)sulfonyl]carbamoyl}-5,16-dioxo-5′-(trifluoromethyl)-1,1′,2′,5,6,7,8,9,10,11,13a,14,14a,15,16,16a-hexadecahydrospiro[cyclopropa[e]pyrrolo[1,2-a][1,4]diazacyclopentadecine-2,3′-pyrano[2,3-c]quinolin]-6-yl]carbamate]
- pEC50 [1]: 7.30
- pIC50 [2]: 10.54

Structure (SMILES): CC(C)(OC(=O)N[C@H]1CCCCC/C=C\[C@@H]2C[C@@]2(C(=O)NS(=O)(=O)C2(C)CC2)NC(=O)[C@@H]2C[C@]3(CCc4c(c(C(F)(F)F)nc5ccc(Cl)cc45)O3)CN2C1=O)C(F)(F)F [Example 387, 1,1,1-trifluoro-2-methylpropan-2-yl [(2R,6S,12Z,13aS,14aR,16aS)-9′-chloro-14a-{[(1-methylcyclopropyl)sulfonyl]carbamoyl}-5,16-dioxo-5′-(trifluoromethyl)-1,1′,2′,5,6,7,8,9,10,11,13a,14,14a,15,16,16a-hexadecahydrospiro[cyclopropa[e]pyrrolo[1,2-a][1,4]diazacyclopentadecine-2,3′-pyrano[2,3-c]quinolin]-6-yl]carbamate]
- pEC50 [1]: 7.70
- pIC50 [2]: 10.42

Structure (SMILES): COc1ccc2nc(C(C)C)c3c(c2c1)[C@H](F)C[C@]1(C[C@H]2C(=O)N[C@]4(C(=O)NS(=O)(=O)C5(C)CC5)C[C@H]4/C=C\CCCCC[C@H](NC(=O)OCC(C)(C)C)C(=O)N2C1)O3 [Example 388, 2,2-dimethylpropyl [(1′R,2S,6S,12Z,13aS,14aR,16aS)-1′-fluoro-9′-methoxy-14a-{[(1-methylcyclopropyl)sulfonyl]carbamoyl}-5,16-dioxo-5′-(propan-2-yl)-1,1′,2′,5,6,7,8,9,10,11,13a,14,14a,15,16,16a-hexadecahydrospiro[cyclopropa[e]pyrrolo[1,2-a][1,4]diazacyclopentadecine-2,3′-pyrano[2,3-c]quinolin]-6-yl]carbamate]
- pEC50 [1]: 8.88
- pIC50 [2]: 10.55

Structure (SMILES): Cc1ccc2nc(C(F)(F)F)c3c(c2c1)CC[C@]1(C[C@H]2C(=O)N[C@]4(C(=O)NS(=O)(=O)C5(C)CC5)C[C@H]4/C=C\CCCCC[C@H](NC(=O)OC(C)(C)C)C(=O)N2C1)O3 [Example 389, tert-butyl [(2R,6S,12Z,13aS,14aR,16aS)-9′-methyl-14a-{[(1-methylcyclopropyl)sulfonyl]carbamoyl}-5,16-dioxo-5′-(trifluoromethyl)-1,1′,2′,5,6,7,8,9,10,11,13a,14,14a,15,16,16a-hexadecahydrospiro[cyclopropa[e]pyrrolo[1,2-a][1,4]diazacyclopentadecine-2,3′-pyrano[2,3-c]quinolin]-6-yl]carbamate]
- pEC50 [1]: 8.58
- pIC50 [2]: 10.96

Structure (SMILES): Cc1ccc2nc(C(F)(F)F)c3c(c2c1)CC[C@]1(C[C@H]2C(=O)N[C@]4(C(=O)NS(=O)(=O)C5(C)CC5)C[C@H]4/C=C\CCCCC[C@H](NC(=O)OCC(C)C)C(=O)N2C1)O3 [Example 390, 2-methylpropyl [(2R,6S,12Z,13aS,14aR,16aS)-9′-methyl-14a-{[(1-methylcyclopropyl)sulfonyl]carbamoyl}-5,16-dioxo-5′-(trifluoromethyl)-1,1′,2′,5,6,7,8,9,10,11,13a,14,14a,15,16,16a-hexadecahydrospiro[cyclopropa[e]pyrrolo[1,2-a][1,4]diazacyclopentadecine-2,3′-pyrano[2,3-c]quinolin]-6-yl]carbamate]
- pEC50 [1]: 7.81
- pIC50 [2]: 10.82

Structure (SMILES): [2H]C([2H])(F)Oc1ccc2nc(C)c3c(c2c1)[C@H](F)C[C@]1(C[C@H]2C(=O)N[C@]4(C(=O)NS(=O)(=O)C5(C)CC5)C[C@H]4/C=C\CCCCC[C@H](NC(=O)OCC(C)C)C(=O)N2C1)O3 [Example 402, 2-methylpropyl [(1′R,2S,6S,12Z,13aS,14aR,16aS)-1′-fluoro-9′-{[fluoro(^2H2)methyl]oxy}-5′-methyl-14a-{[(1-methylcyclopropyl)sulfonyl]carbamoyl}-5,16-dioxo-1,1′,2′,5,6,7,8,9,10,11,13a,14,14a,15,16,16a-hexadecahydrospiro[cyclopropa[e]pyrrolo[1,2-a][1,4]diazacyclopentadecine-2,3′-pyrano[2,3-c]quinolin]-6-yl]carbamate]
- pEC50 ([1]; K+ salt): 8.64
- pIC50 ([2]; K+ salt): 10.96

Structure (SMILES): [2H]C([2H])(F)Oc1ccc2nc(C)c3c(c2c1)[C@H](F)C[C@]1(C[C@H]2C(=O)N[C@]4(C(=O)NS(=O)(=O)C5(C)CC5)C[C@H]4/C=C\CCCCC[C@H](NC(=O)OCC(C)(C)C)C(=O)N2C1)O3 [Example 403, 2,2-dimethylpropyl [(1′R,2S,6S,12Z,13aS,14aR,16aS)-1′-fluoro-9′-{[fluoro(^2H2)methyl]oxy}-5′-methyl-14a-{[(1-methylcyclopropyl)sulfonyl]carbamoyl}-5,16-dioxo-1,1′,2′,5,6,7,8,9,10,11,13a,14,14a,15,16,16a-hexadecahydrospiro[cyclopropa[e]pyrrolo[1,2-a][1,4]diazacyclopentadecine-2,3′-pyrano[2,3-c]quinolin]-6-yl]carbamate]
- pEC50 ([1]; K+ salt): 8.72
- pIC50 ([2]; K+ salt): 10.89

Structure (SMILES): COc1ccc2nc(C)c3c(c2c1)[C@H](F)C[C@]1(C[C@H]2C(=O)N[C@]4(C(=O)NS(=O)(=O)C5(C)CC5)C[C@H]4/C=C\CCCCC[C@H](NC(=O)OC(C)C(C)(C)C)C(=O)N2C1)O3 (stereo partly drawn) [Example 404, 3,3-dimethylbutan-2-yl [(l′R,2S,6S,12Z,13aS,14aR,16aS)-1′-fluoro-9′-methoxy-5′-methyl-14a-{[(1-methylcyclopropyl)sulfonyl]carbamoyl}-5,16-dioxo-1,1′,2′,5,6,7,8,9,10,11,13a,14,14a,15,16,16a-hexadecahydrospiro[cyclopropa[e]pyrrolo[1,2-a][1,4]diazacyclopentadecine-2,3′-pyrano[2,3-c]quinolin]-6-yl]carbamate]
- pEC50 [1]: 8.91
- pIC50 [2]: 10.74

Structure (SMILES): Cc1nc2ccc(F)cc2c2c1O[C@]1(CC2)C[C@H]2C(=O)N[C@]3(C(=O)NS(=O)(=O)C4(C)CC4)C[C@H]3/C=C\CCCCC[C@H](NC(=O)OC(C)(C)C(F)(F)F)C(=O)N2C1 [Example 405, 1,1,1-trifluoro-2-methylpropan-2-yl [(2R,6S,12Z,13aS,14aR,16aS)-9′-fluoro-5′-methyl-14a-{[(1-methylcyclopropyl)sulfonyl]carbamoyl}-5,16-dioxo-1,1′,2′,5,6,7,8,9,10,11,13a,14,14a,15,16,16a-hexadecahydrospiro[cyclopropa[e]pyrrolo[1,2-a][1,4]diazacyclopentadecine-2,3′-pyrano[2,3-c]quinolin]-6-yl]carbamate]
- pEC50 [1]: 9.09
- pIC50 [2]: 10.68

Structure (SMILES): Cc1nc2ccc(F)cc2c2c1O[C@]1(CC2)C[C@H]2C(=O)N[C@]3(C(=O)NS(=O)(=O)C4(C)CC4)C[C@H]3/C=C\CCCCC[C@H](NC(=O)OCC(C)(C)C)C(=O)N2C1 [Example 406, 2,2-dimethylpropyl [(2R,6S,12Z,13aS,14aR,16aS)-9′-fluoro-5′-methyl-14a-{[(1-methylcyclopropyl)sulfonyl]carbamoyl}-5,16-dioxo-1,1′,2′,5,6,7,8,9,10,11,13a,14,14a,15,16,16a-hexadecahydrospiro[cyclopropa[e]pyrrolo[1,2-a][1,4]diazacyclopentadecine-2,3′-pyrano[2,3-c]quinolin]-6-yl]carbamate]
- pEC50 [1]: 9.00
- pIC50 [2]: 10.89

Source: patent US8987195B2 (priority 2012, dated 2015)
